Source: PubChem BioAssay AID2060886 (Molecular Pharmacology Branch, DTP, NCI, 2025)
Each block holds one compound with its values, some of them ahead of it.

Tested on: 653999-131-R-J2-PDC complex spheroids, growth inhibition
Assay: Anticancer human tumor 653999-131-R-J2-PDC patient-derived lung adenocarcinoma cell line growth inhibition [RAS]
Details: for IC50: curve of first compound; for viability, T/C: stronger effect = lower value
Outline: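 Agents were tested in combination matrices in half-log decrements from a top concentration at or near clinical Cmax (10 microM if undetermined). Targets were multi-cell spheroids of tumour lines plus HUVEC and MSC stromal cells.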

[1] = second compound 0.0316 µM, first compound 0.00316 µM
[2] = second compound 0.0316 µM, first compound 0.01 µM
[3] = second compound 0.0316 µM, first compound 0.0316 µM
[4] = second compound 0.0316 µM, first compound 0.1 µM
[5] = second compound 0.0316 µM, first compound 0.316 µM
[6] = second compound 0.0316 µM, first compound 1 µM
[7] = second compound 0.1 µM, first compound 0.00316 µM
[8] = second compound 0.1 µM, first compound 0.01 µM
[9] = second compound 0.1 µM, first compound 0.0316 µM
[10] = second compound 0.1 µM, first compound 0.1 µM
[11] = second compound 0.1 µM, first compound 0.316 µM
[12] = second compound 0.1 µM, first compound 1 µM
[13] = second compound 0.316 µM, first compound 0.00316 µM
[14] = second compound 0.316 µM, first compound 0.01 µM
[15] = second compound 0.316 µM, first compound 0.0316 µM
[16] = second compound 0.316 µM, first compound 0.1 µM
[17] = second compound 0.316 µM, first compound 0.316 µM
[18] = second compound 0.316 µM, first compound 1 µM
[19] = second compound 1 µM, first compound 0.00316 µM
[20] = second compound 1 µM, first compound 0.01 µM
[21] = second compound 1 µM, first compound 0.0316 µM
[22] = second compound 1 µM, first compound 0.1 µM
[23] = second compound 1 µM, first compound 0.316 µM
[24] = second compound 1 µM, first compound 1 µM
[25] = second compound 0.0316 µM, first compound 0.000949 µM
[26] = second compound 0.0316 µM, first compound 0.003 µM
[27] = second compound 0.0316 µM, first compound 0.00949 µM
[28] = second compound 0.0316 µM, first compound 0.03 µM
[29] = second compound 0.0316 µM, first compound 0.0949 µM
[30] = second compound 0.0316 µM, first compound 0.3 µM
[31] = second compound 0.1 µM, first compound 0.000949 µM
[32] = second compound 0.1 µM, first compound 0.003 µM
[33] = second compound 0.1 µM, first compound 0.00949 µM
[34] = second compound 0.1 µM, first compound 0.03 µM
[35] = second compound 0.1 µM, first compound 0.0949 µM
[36] = second compound 0.1 µM, first compound 0.3 µM
[37] = second compound 0.316 µM, first compound 0.000949 µM
[38] = second compound 0.316 µM, first compound 0.003 µM
[39] = second compound 0.316 µM, first compound 0.00949 µM
[40] = second compound 0.316 µM, first compound 0.03 µM
[41] = second compound 0.316 µM, first compound 0.0949 µM
[42] = second compound 0.316 µM, first compound 0.3 µM
[43] = second compound 1 µM, first compound 0.000949 µM
[44] = second compound 1 µM, first compound 0.003 µM
[45] = second compound 1 µM, first compound 0.00949 µM
[46] = second compound 1 µM, first compound 0.03 µM
[47] = second compound 1 µM, first compound 0.0949 µM
[48] = second compound 1 µM, first compound 0.3 µM
[49] = second compound 3.16 µM, first compound 0.000949 µM
[50] = second compound 3.16 µM, first compound 0.003 µM
[51] = second compound 3.16 µM, first compound 0.00949 µM
[52] = second compound 3.16 µM, first compound 0.03 µM
[53] = second compound 3.16 µM, first compound 0.0949 µM
[54] = second compound 3.16 µM, first compound 0.3 µM
[55] = second compound 10 µM, first compound 0.000949 µM
[56] = second compound 10 µM, first compound 0.003 µM
[57] = second compound 10 µM, first compound 0.00949 µM
[58] = second compound 10 µM, first compound 0.03 µM
[59] = second compound 10 µM, first compound 0.0949 µM
[60] = second compound 10 µM, first compound 0.3 µM
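Also: spheroids exposed to the agents for seven days before the readout.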

IC50 (second compound 0.0316 µM): > 1000 nM
IC50 (second compound 0.1 µM): > 1000 nM
IC50 (second compound 0.316 µM): > 1000 nM
IC50 (second compound 1 µM): > 1000 nM
IC50 (second compound 3.16 µM): < 3.16 nM
IC50 (second compound 10 µM): < 3.16 nM
SMILES: C=CC(=O)N1CCN(c2nc(OCC3CCCN3C)nc3c(F)c(-c4nc(N)cc(C)c4C(F)(F)F)c(Cl)cc23)C(C)C1 (stereo not drawn) + C#Cc1c(F)ccc2cc(O)cc(-c3ncc4c(N5CC6CCC(C5)N6)nc(OCC56CCCN5CC(F)C6)nc4c3F)c12
viability, T/C [1]: 117%
viability, T/C [2]: 91.3%
viability, T/C [3]: 95.9%
viability, T/C [4]: 82.3%
viability, T/C [5]: 99.1%
viability, T/C [6]: 85.2%
viability, T/C [7]: 92.7%
viability, T/C [8]: 84.1%
viability, T/C [9]: 73.9%
viability, T/C [10]: 78.5%
viability, T/C [11]: 83.3%
viability, T/C [12]: 73.1%
viability, T/C [13]: 71.7%
viability, T/C [14]: 62.5%
viability, T/C [15]: 65.6%
viability, T/C [16]: 67.8%
viability, T/C [17]: 70.2%
viability, T/C [18]: 52.8%
viability, T/C [19]: 41.5%
viability, T/C [20]: 63%
viability, T/C [21]: 54%
viability, T/C [22]: 53.8%
viability, T/C [23]: 55.4%
viability, T/C [24]: 46.5%
viability, T/C (second compound 3.16 µM, first compound 0.00316 µM): 38%
viability, T/C (second compound 3.16 µM, first compound 0.01 µM): 55.2%
viability, T/C (second compound 3.16 µM, first compound 0.0316 µM): 39%
viability, T/C (second compound 3.16 µM, first compound 0.1 µM): 35%
viability, T/C (second compound 3.16 µM, first compound 0.316 µM): 43.8%
viability, T/C (second compound 3.16 µM, first compound 1 µM): 31.4%
viability, T/C (second compound 10 µM, first compound 0.00316 µM): 24.5%
viability, T/C (second compound 10 µM, first compound 0.01 µM): 26.7%
viability, T/C (second compound 10 µM, first compound 0.0316 µM): 20.8%
viability, T/C (second compound 10 µM, first compound 0.1 µM): 31.9%
viability, T/C (second compound 10 µM, first compound 0.316 µM): 27%
viability, T/C (second compound 10 µM, first compound 1 µM): 29.6%

IC50 (second compound 0.0316 µM): > 300 nM
IC50 (second compound 0.1 µM): > 300 nM
IC50 (second compound 0.316 µM): 2.7 nM
IC50 (second compound 1 µM): < 0.949 nM
IC50 (second compound 3.16 µM): < 0.949 nM
IC50 (second compound 10 µM): < 0.949 nM
SMILES: CC1(C)CCC(Nc2ncc(C(F)(F)F)c(-c3c[nH]c4c(P(C)(C)=O)c(C#N)ccc34)n2)CN1 (stereo not drawn) + C#Cc1c(F)ccc2cc(O)cc(-c3ncc4c(N5CC6CCC(C5)N6)nc(OCC56CCCN5CC(F)C6)nc4c3F)c12
viability, T/C [25]: 84.7%
viability, T/C [26]: 66.3%
viability, T/C [27]: 62.9%
viability, T/C [28]: 61.5%
viability, T/C [29]: 55.3%
viability, T/C [30]: 55.6%
viability, T/C [31]: 69.9%
viability, T/C [32]: 64.2%
viability, T/C [33]: 59%
viability, T/C [34]: 56.4%
viability, T/C [35]: 72.7%
viability, T/C [36]: 55.6%
viability, T/C [37]: 59.6%
viability, T/C [38]: 48.3%
viability, T/C [39]: 46.9%
viability, T/C [40]: 47.3%
viability, T/C [41]: 44.4%
viability, T/C [42]: 43.5%
viability, T/C [43]: 37.5%
viability, T/C [44]: 36.3%
viability, T/C [45]: 37.1%
viability, T/C [46]: 38.1%
viability, T/C [47]: 37.7%
viability, T/C [48]: 39.3%
viability, T/C [49]: 33.8%
viability, T/C [50]: 26.8%
viability, T/C [51]: 21.6%
viability, T/C [52]: 22.1%
viability, T/C [53]: 27.1%
viability, T/C [54]: 27.4%
viability, T/C [55]: 26.4%
viability, T/C [56]: 20.2%
viability, T/C [57]: 16.7%
viability, T/C [58]: 14.1%
viability, T/C [59]: 16.9%
viability, T/C [60]: 17.4%

IC50 (second compound 0.0316 µM): 7.6 nM
IC50 (second compound 0.1 µM): 7.98 nM
IC50 (second compound 0.316 µM): 1.67 nM
IC50 (second compound 1 µM): < 0.949 nM
IC50 (second compound 3.16 µM): < 0.949 nM
IC50 (second compound 10 µM): < 0.949 nM
SMILES: CCc1c2c(nc3ccc(O)cc13)-c1cc3c(c(=O)n1C2)COC(=O)[C@]3(O)CC + C#Cc1c(F)ccc2cc(O)cc(-c3ncc4c(N5CC6CCC(C5)N6)nc(OCC56CCCN5CC(F)C6)nc4c3F)c12
viability, T/C [25]: 85.8%
viability, T/C [26]: 68.4%
viability, T/C [27]: 43.6%
viability, T/C [28]: 30.7%
viability, T/C [29]: 24.1%
viability, T/C [30]: 14.2%
viability, T/C [31]: 83.9%
viability, T/C [32]: 58.7%
viability, T/C [33]: 48.4%
viability, T/C [34]: 35.2%
viability, T/C [35]: 22.9%
viability, T/C [36]: 12.2%
viability, T/C [37]: 57.5%
viability, T/C [38]: 41.4%
viability, T/C [39]: 32.2%
viability, T/C [40]: 23.5%
viability, T/C [41]: 17.5%
viability, T/C [42]: 13.3%
viability, T/C [43]: 40.3%
viability, T/C [44]: 26.4%
viability, T/C [45]: 21.4%
viability, T/C [46]: 20.2%
viability, T/C [47]: 15.1%
viability, T/C [48]: 20.8%
viability, T/C [49]: 39.2%
viability, T/C [50]: 21.2%
viability, T/C [51]: 16.6%
viability, T/C [52]: 11.6%
viability, T/C [53]: 9.96%
viability, T/C [54]: 7.39%
viability, T/C [55]: 26.8%
viability, T/C [56]: 17.8%
viability, T/C [57]: 12.5%
viability, T/C [58]: 9.45%
viability, T/C [59]: 7.29%
viability, T/C [60]: 4.35%

IC50 (second compound 0.00316 µM): 838 nM
IC50 (second compound 0.01 µM): > 1000 nM
IC50 (second compound 0.0316 µM): > 1000 nM
IC50 (second compound 0.1 µM): > 1000 nM
IC50 (second compound 0.316 µM): 894 nM
IC50 (second compound 1 µM): > 1000 nM
SMILES: C=CC(=O)Nc1cc(Nc2nccc(-c3cn(C)c4ccccc34)n2)c(OC)cc1N(C)CCN(C)C + C=CC(=O)N1CCN(c2nc(OCC3CCCN3C)nc3c(F)c(-c4nc(N)cc(C)c4C(F)(F)F)c(Cl)cc23)C(C)C1
viability, T/C (second compound 0.00316 µM, first compound 0.00316 µM): 104%
viability, T/C (second compound 0.00316 µM, first compound 0.01 µM): 90.8%
viability, T/C (second compound 0.00316 µM, first compound 0.0316 µM): 95.3%
viability, T/C (second compound 0.00316 µM, first compound 0.1 µM): 94.9%
viability, T/C (second compound 0.00316 µM, first compound 0.316 µM): 70.3%
viability, T/C (second compound 0.00316 µM, first compound 1 µM): 46.3%
viability, T/C (second compound 0.01 µM, first compound 0.00316 µM): 94.1%
viability, T/C (second compound 0.01 µM, first compound 0.01 µM): 83.7%
viability, T/C (second compound 0.01 µM, first compound 0.0316 µM): 79.5%
viability, T/C (second compound 0.01 µM, first compound 0.1 µM): 100%
viability, T/C (second compound 0.01 µM, first compound 0.316 µM): 57.9%
viability, T/C (second compound 0.01 µM, first compound 1 µM): 56%
viability, T/C [1]: 113%
viability, T/C [2]: 100%
viability, T/C [3]: 95.3%
viability, T/C [4]: 69.6%
viability, T/C [5]: 59.2%
viability, T/C [6]: 59.4%
viability, T/C [7]: 108%
viability, T/C [8]: 86.8%
viability, T/C [9]: 89.5%
viability, T/C [10]: 77.5%
viability, T/C [11]: 69.6%
viability, T/C [12]: 52.7%
viability, T/C [13]: 100%
viability, T/C [14]: 107%
viability, T/C [15]: 98.8%
viability, T/C [16]: 70.8%
viability, T/C [17]: 67.7%
viability, T/C [18]: 46%
viability, T/C [19]: 105%
viability, T/C [20]: 104%
viability, T/C [21]: 94.2%
viability, T/C [22]: 67%
viability, T/C [23]: 58.6%
viability, T/C [24]: 55.9%
